# Source: paper PMC10130320, “Extracellular enzymes secreted in the mycelial block of Lentinula edodes during hyphal growth” (AMB Express, 2023)
# Counter-ions that a name gives are not always drawn.
# Key:
# Lcc13 = target: T1, Lcc13 (Lentinula edodes, UniProt A0A0P0ZBE8); assay: ABTS oxidation, absorbance at […] nm; format: biochemical; details: 1.25 mM ABTS; 50 mM sodium citrate pH 3.0; partially purified fraction P2-2
# T1 construct: native, partially purified from sawdust medium (fraction P2-2), 61 kDa on SDS-PAGE
# T1 sequence (A0A0P0ZBE8 20-520): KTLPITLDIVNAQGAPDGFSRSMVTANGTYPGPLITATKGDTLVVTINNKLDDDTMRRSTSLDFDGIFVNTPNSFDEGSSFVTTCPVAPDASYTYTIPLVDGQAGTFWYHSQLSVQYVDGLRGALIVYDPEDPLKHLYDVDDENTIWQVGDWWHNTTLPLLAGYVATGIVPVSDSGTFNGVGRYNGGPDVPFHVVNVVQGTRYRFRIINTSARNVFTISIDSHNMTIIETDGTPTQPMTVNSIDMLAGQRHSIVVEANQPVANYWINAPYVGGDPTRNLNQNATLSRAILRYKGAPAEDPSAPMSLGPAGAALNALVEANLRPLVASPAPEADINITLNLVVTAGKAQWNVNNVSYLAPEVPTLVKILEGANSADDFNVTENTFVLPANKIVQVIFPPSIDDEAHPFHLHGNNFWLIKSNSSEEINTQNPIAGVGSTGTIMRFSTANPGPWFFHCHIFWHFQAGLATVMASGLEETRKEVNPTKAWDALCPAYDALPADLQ
# Lcc5 = target: T2, Lcc5 (Lentinula edodes, UniProt R9WU11); assay: ABTS oxidation, absorbance at […] nm; format: biochemical; details: 1.25 mM ABTS; 50 mM sodium citrate pH 3.0; partially purified fraction P1-1
# T2 construct: native, partially purified from sawdust medium (fraction P1-1), 68 kDa on SDS-PAGE
# T2 sequence (R9WU11 22-515): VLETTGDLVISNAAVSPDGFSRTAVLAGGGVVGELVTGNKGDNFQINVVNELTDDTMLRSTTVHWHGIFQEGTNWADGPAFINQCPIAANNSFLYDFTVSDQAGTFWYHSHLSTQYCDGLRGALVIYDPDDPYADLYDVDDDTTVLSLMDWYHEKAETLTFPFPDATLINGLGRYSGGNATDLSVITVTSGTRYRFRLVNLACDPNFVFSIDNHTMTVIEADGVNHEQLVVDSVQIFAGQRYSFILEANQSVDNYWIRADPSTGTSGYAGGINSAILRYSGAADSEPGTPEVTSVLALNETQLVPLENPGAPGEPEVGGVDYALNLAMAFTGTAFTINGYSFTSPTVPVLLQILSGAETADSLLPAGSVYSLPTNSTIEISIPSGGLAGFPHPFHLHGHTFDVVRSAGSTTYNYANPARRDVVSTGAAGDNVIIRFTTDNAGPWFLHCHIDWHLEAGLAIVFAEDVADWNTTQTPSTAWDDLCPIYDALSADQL
smiles,measurement,setting,value
"CCn1c(=NN=c2sc3cc(S(=O)(=O)O)ccc3n2CC)sc2cc(S(=O)(=O)O)ccc21 [ABTS, 2,2-azino-bis (3-ethylbenzothiazoline-6-sulfonic acid) diammonium salt]","ABTS oxidation, absorbance at 420 nm",Lcc13,the Lcc purification was performed based on the enzymatic activity for ABTS
same,"ABTS oxidation, absorbance at 420 nm",Lcc5,the Lcc purification was performed based on the enzymatic activity for ABTS
